Results published in US20090227606A1, “Methods for Preventing or Treating Acute and Chronic Pain” (priority 2006, published 2009).
“Also recorded” adds a separate entry of the source.

Columns and labels:
GLT-1 mRNA = assay: Real Time RT-PCR of ipsilateral lumbar spinal cord, GLT-1 mRNA; assay type: in vivo, rat; settings: daily intrathecal
Description: Tissue was collected from 4-5 rats/group on postoperative days 4 or 12. In order to obtain both mRNA and protein from the same tissue sample, the L5 region of the spinal cord (ipsilateral to the injury), was isolated and placed in PBS supplemented with protease inhibitor cocktail (1:1000, Sigma Chemical Co., St. Louis, Mo.) and RNase inhibitor (0.75 U/μL Ambion, Austin, Tex.). Samples were sonicated in five one-second bursts at half-maximal power, centrifuged at 6500 rpm for 15 minutes at 4° C. Protein-containing supernatants were collected and stored at −80° C. until further processing by Western blot analysis. […]
Real time RT-PCR reactions were carried out in a total reaction volume of 25 μL containing a final concentration of 1.5 U Platinum Taq DNA polymerase (Invitrogen Corporation, Carlsbad, Calif.); 20 mM Tris HCl (pH 8.4); 50 mM KCl; 3 mM MgCl2; 200 μM dGTP, dCTP, and dATP; 400 μM dUTP and 1 U of UDG (uracyl DNA glycosylase); 900 nM of forward and reverse primers; 300 nM Taqman probe; and 5 μL of a 10-fold dilution of cDNA (50 ng) from the RT step. The iCycler™ Multicolor Real-Time PCR detection system (Bio-Rad, Hercules, Calif.) was used to quantify PCR product. […] The relative fold change from control was then expressed by calculation of 2^−ΔΔC^T for each sample and the results are expressed as the group mean fold change±SEM.

GLT-1 = assay: Immunohistochemistry of rat lumbar spinal cord, GLT-1; assay type: in vivo; settings: day 12 post-transection, ipsilateral vs contralateral
Description: (§1) For assessment of GFAP, GLT-1 and GLAST immunoreactivity, a separate group of rats (n=4/treatment) were anesthetized and transcardially perfused with 0.1 M PBS (phosphate-buffered saline), pH 7.4, followed by 4% paraformaldehyde in PBS on day 12 post-L5 spinal nerve transection. Lumbar spinal cord sections were identified, isolated, and processed as described previously (Colburn, R. W. et al. 1997. J. Neuroimmunol. 79:163-175). Free-floating, […] were cut in a cryostat and processed for immunofluorescence. Sections were blocked with 5% FBS/0.1% Triton-X 100 for 1 hour at room temperature (RT). For double immunofluorescence, spinal sections were incubated with a mixture of rabbit polyclonal anti-GLT-1 (1:500) or guinea pig anti-GLAST (1:5000, Chemicon, Temecula, Calif.), and mouse anti-GFAP G-A-5 (astrocyte marker, 1:400, Sigma Chemical Co., St. Louis, Mo.) in 3% FBS/0.1% triton-X 100/TBS over night at 4° C., washed, incubated in a mixture of goat anti-rabbit Alexa Fluor™-555 and goat anti-mouse Alexa Fluor™-488 (1:250, Molecular Probes, Eugene, Oreg.) secondary antibodies in 3% FBS/0.1% triton-X 100/TBS for 1 hour at RT. To control for nonspecific staining, control sections were incubated in the absence of primary antibodies. The sections were examined with a fluorescence microscope, and images were captured with a Q-Fire cooled camera. […]

GLAST = assay: Immunohistochemistry of rat lumbar spinal cord, GLAST; assay type: in vivo; settings: day 12 post-transection, ipsilateral side
Description: as §1

[1] = system: L5 spinal nerve transected rats; assay: Mechanical allodynia after L5 spinal nerve transection in rats; assay type: in vivo, rat
Description: Male Sprague Dawley rats (Harlan, Indianapolis, Ind.) weighing 150-175 g at the start of surgery were housed individually and maintained in a 12:12 light/dark cycle with ad libitum access to food and water. The animals were allowed to habituate to the housing facilities for 1 week before experiments began. Behavioral studies were performed in a quiet room between the hours of 7:00 and 10:00 A.M. The Institutional Animal Care and Use Committee at Dartmouth College approved all procedures in this study. Efforts were made to limit animal distress and use the minimum number of animals necessary to achieve statistical significance, in accord with guidelines set forth by the International Association for the Study of Pain.
Unilateral mononeuropathy was produced according to the method described by Colburn et al. (1999. Exp. Neurol. 157:289-304). Briefly, rats were anesthetized by inhalation of halothane in an O2 carrier (induction, 4%; maintenance, 2%). […] The L6 transverse process was partially removed, exposing the L4 and L5 spinal nerves. The L5 spinal nerve was identified, separated, lifted, and transected, followed by removal of a 3-mm distal segment of nerve to prevent reconnection. […]
Mechanical sensitivity to non-noxious stimuli was measured by applying 2 g and 12 g von Frey filaments (Stoelting, Wood Dale, Ill.) to the plantar surface of the ipsilateral hind paw (n=8-12/group). […]

[2] = system: cyclic-adenosine-5′,3′-monophosphate (cAMP)-specific phosphodiesterase (PDE IV); settings: literature; cited from earlier work

CCCn1cnc2c1c(=O)n(CCCCC(C)=O)c(=O)n2C [propentofylline]
GLT-1 mRNA in lumbar spinal cord (GLT-1 mRNA; day 4 post-transection): enhanced; also recorded: significantly increased levels of GLT-1 mRNA | GLT-1 mRNA in lumbar spinal cord (GLT-1 mRNA; day 12 post-transection): enhanced; also recorded: significantly increased levels of GLT-1 mRNA | GLT-1 immunoreactivity in dorsal horn (GLT-1): no qualitative difference in GLT-1 between ipsilateral and contralateral dorsal horns | GLAST immunoreactivity in dorsal horn (GLAST): did not enhance GLAST immunoreactivity on the ipsilateral side | mechanical allodynia (paw withdrawals to 12 g von Frey filament) ([1]; 10 μg daily via lumbar puncture, from one hour prior to transection, vs. L5 saline): significant decrease in mechanical allodynia; also recorded: robustly inhibited the development of mechanical allodynia at all time points tested | mechanical allodynia compared with normal group ([1]; from day 5 onward (day 5, 7, 9 and 12), P>0.05): no longer discernable from the normal group | PDE IV [2]: inhibit
